Here are results for three compounds from US8049013B2, “5- [4-(azetidin-3-yloxy)-phenyl]-2-phenyl-5H-thiazolo[5,4-C] pyridin-4-one derivatives and their use as MCH receptor antagonists” (Eli Lilly and Company, priority 2006, dated 2011).

Assay [1] deals with T1, human MCHR1 (Homo sapiens, UniProt Q99705).
T1 construct: expressed in transfected cells; host or cells: AV-12 cells (clone 43), membranes
As to the kind of experiment: Functional GTPγ35S binding assay: inhibition of MCH-stimulated GTPγ35S binding to membranes of AV-12 cells expressing human MCHR1. It is filed as biochemical. The settings on record: Kb from IC50 by modified Cheng-Prusoff (Leff and Dougal). The text has this:
(§1) One of skill in the art is able to perform both the ^125I-MCH binding and functional GTPγ^35S binding assays using the procedures herein or procedures disclosed in the art. For binding assay, see for example, Macdonald, D., et al., 2000. Molecular characterization of the melanin-concentrating hormone/receptor complex: identification of critical residues involved in binding and activation. Mol Pharmacol 58, 217-225. For GTPgammaS functional assay, see for example, Gao, X., et al., 2004. Europium-labeled melanin-concentrating hormone analogues: ligands for measuring binding to melanin-concentrating hormone receptors 1 and 2. Anal Biochem 328, 187-195.
Functional antagonism of MCH activity is assessed by measuring the ability of a test compound to inhibit MCH-stimulated binding of GTPγ^35S to membranes isolated from AV-12 cells expressing the human MCHR1 using a scintillation proximity assay. […] After verifying competitive antagonism by Schild analysis, Kb values are calculated from the IC50 values for each antagonist and the EC50 for MCH (determined independently) using a modification of the Cheng-Prusoff approximation as described by Leff and Dougal (Trends Pharmacol. Sci. (1993) 14: 110-112). […]
On the technique in general: GTPγS is a poorly hydrolysed GTP analogue; its binding reports G protein activation.

The target of assay [2] is T1, human MCHR1. The assay is described as follows: 125I-MCH competitive binding assay (scintillation proximity), membranes of AV-12 cells transfected with human MCHR1. The note with it: Ki calculated from IC50 by Cheng-Prusoff, average.
Source text: as §1
Binding of compounds to MCHR1 is assessed in a competitive binding assay employing ^125I-MCH, compound of the invention, and clone 43 membranes using scintillation proximity techniques. IC50 values (defined as the concentration of test compound required to reduce specific binding of ^125I-MCH by 50%) are determined by fitting the concentration-response data to a 4-parameter model (max response, min response, Hill coefficient, IC50) using a spreadsheet.

A short description of assay [3]: In vivo efficacy in diet-induced obese male Long-Evans rats, oral gavage once a day for 3 days. The settings on record: 10 mg/Kg oral. On the procedure:
Animals are housed individually in a temperature regulated room (24° C.) with a reverse 12 hour light/dark cycle (dark 10:00/22:00). Water and food (Teklad 95217, Harlan, Wis.) were available ad libitum. Compounds are administered orally in a vehicle that consists of 10% acacia and 0.15% saccharin in water once a day before onset of the dark period for 3 days. Food intake and body weight are measured daily for the 3 day period. The compound of Example 29 produces an average body weight reduction of about 7 grams at a dose of 10 mg/Kg when compared to vehicle control.

Molecules are shown by their SMILES. Counter-ions that a name gives are not always drawn.

A word on the Ki: it is a dissociation constant, usually derived from enzyme kinetics or from competition with a known ligand.

T1 sequence (Q99705 whole entry): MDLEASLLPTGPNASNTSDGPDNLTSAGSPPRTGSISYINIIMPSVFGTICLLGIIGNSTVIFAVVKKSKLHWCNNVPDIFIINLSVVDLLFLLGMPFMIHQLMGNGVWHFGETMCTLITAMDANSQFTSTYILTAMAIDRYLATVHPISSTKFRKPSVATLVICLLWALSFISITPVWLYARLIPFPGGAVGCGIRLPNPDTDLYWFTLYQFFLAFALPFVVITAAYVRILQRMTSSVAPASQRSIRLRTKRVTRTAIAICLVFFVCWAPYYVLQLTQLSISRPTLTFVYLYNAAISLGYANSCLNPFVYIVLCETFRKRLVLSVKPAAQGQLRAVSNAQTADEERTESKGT

Regarding `COc1cc(N2CCc3nc(-c4ccc(Cl)cc4)sc3C2=O)ccc1OC1CN(C(C)C)C1` [Example 28, 2-(4-Chloro-phenyl)-5-[4-(1-isopropyl-azetidin-3-yloxy)-3-methoxy-phenyl]-6,7-dihydro-5H-thiazolo[5,4-c]pyridin-4-one, hydrochloride salt], the Kb on human MCHR1 [1] was ~6 nM.
Consider `COc1cc(N2CCc3nc(-c4ccc(Cl)cc4)sc3C2=O)ccc1OC1CN(C2CC2)C1` [Example 37, 2-(4-Chloro-phenyl)-5-[4-(1-cyclopropyl-azetidin-3-yloxy)-3-methoxy-phenyl]-6,7-dihydro-5H-thiazolo[5,4-c]pyridin-4-one, hydrochloride salt], for which the inhibition constant (Ki) on human MCHR1 [2] is ~4 nM.
Take `COc1cc(N2CCc3nc(-c4ccc(Cl)cc4)sc3C2=O)ccc1OC1CN(C2CCC2)C1.Cl` [Example 29, 2-(4-Chloro-phenyl)-5-[4-(l-cyclobutyl-azetidin-3-yloxy)-3-methoxy-phenyl]-6,7-dihydro-5H-thiazolo[5,4-c]pyridin-4-one, hydrochloride salt]: the “average body weight reduction when compared to vehicle control” value in assay [3] is reported as “about 7 grams”.
